The values below come from US11407819B2, “Compositions and use of a fibrinogen binding motif present in EFB and COA for therapeutics and vaccines against Staphylococcus aureus” (priority 2013, dated 2022).

The target in test [1] is Fibrinogen-D fragment. The test can be described thus: Isothermal titration calorimetry (VP-ITC) of Coa peptides with Fg-D fragment. Set-up: species or system human. The settings on record: one-binding site model, 10 μM Fg-D, read-out: dissociation constant (KD) to Fg-D. How it is done:
Binding isotherms for the interaction of Fg-D with Coa peptide sCoa-RI (FIG. 14A), sCoa-R13 (FIG. 14B) and sCoa-RV (FIG. 14C) were generated by titrating the peptides (˜200 μM) into an ITC cell containing 10 μM Fg-D. The top panels show heat difference upon injection of coa peptides, and the lower panels show integrated heat of injections. The data were fitted to a one-binding site model (bottom panels), and binding affinities are expressed as dissociation constants (KD) or the reciprocal of the association constants determined by Microcal Origin software. N represents the binding ratio. To generate more quantitative binding data for the Coa peptide Fg interaction isothermal titration calorimetry and titrated the Coa peptides into a solution containing a fixed concentration of Fg-D fragments was used.
Isothermal titration calorimetry—The interaction between Coa peptides and the soluble, isolated Fibrinogen-D fragment was further characterized by isothermal titration calorimetry (ITC) using a VP-ITC microcalorimeter. The Fibrinogen-D fragment used in these studies was generated by digesting full length Fibrinogen with plasmin for 4 h and fractionating the digestion products by gel filtration chromatography. The ITC cell contained 10 μM Fibrinogen-D fragments and the syringe contained 150-200 μM Coa peptides in TBS (25 mM Tris, 3.0 mM KCl and 140 mM NaCl, pH 7.4). […]

For test [2], the target named is T1, rCoa binding to Fg (Homo sapiens, UniProt P02671+P02675+P02679).
T1 construct: full-length human Fibrinogen (diluted in PBS, Enzyme research); purchased Enzyme research; host or cells: Coa probe made in E. coli BL21
T1 sequence (P02671 20-629 limits assumed): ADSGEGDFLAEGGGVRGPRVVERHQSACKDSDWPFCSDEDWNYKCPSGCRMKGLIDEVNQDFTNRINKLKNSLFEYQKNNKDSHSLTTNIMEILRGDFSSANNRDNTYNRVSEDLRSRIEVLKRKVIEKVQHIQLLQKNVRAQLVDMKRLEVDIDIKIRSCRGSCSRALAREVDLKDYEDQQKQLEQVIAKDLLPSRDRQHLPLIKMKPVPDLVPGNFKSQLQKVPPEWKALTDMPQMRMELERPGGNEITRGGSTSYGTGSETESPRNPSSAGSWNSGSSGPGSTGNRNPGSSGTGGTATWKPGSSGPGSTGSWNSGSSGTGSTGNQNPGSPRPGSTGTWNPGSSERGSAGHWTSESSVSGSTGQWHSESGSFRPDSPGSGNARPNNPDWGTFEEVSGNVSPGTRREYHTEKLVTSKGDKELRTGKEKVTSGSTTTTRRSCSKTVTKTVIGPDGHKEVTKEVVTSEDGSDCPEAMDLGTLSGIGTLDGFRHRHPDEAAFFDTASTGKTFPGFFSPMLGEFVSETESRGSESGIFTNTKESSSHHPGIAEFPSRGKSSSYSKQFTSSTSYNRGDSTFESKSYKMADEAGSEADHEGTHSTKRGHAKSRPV
T1 sequence (P02675 31-491): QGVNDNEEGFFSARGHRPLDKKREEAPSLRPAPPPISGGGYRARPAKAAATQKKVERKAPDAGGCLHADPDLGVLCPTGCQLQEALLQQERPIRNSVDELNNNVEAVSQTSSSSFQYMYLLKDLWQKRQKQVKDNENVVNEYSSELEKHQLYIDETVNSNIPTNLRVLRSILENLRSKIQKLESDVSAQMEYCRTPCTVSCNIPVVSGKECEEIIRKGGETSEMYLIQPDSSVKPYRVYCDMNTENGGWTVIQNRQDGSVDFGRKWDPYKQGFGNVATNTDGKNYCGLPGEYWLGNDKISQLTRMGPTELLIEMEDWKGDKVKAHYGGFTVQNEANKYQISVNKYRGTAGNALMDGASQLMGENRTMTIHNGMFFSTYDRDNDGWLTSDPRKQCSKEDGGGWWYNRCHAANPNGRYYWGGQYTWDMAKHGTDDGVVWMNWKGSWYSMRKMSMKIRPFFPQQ
T1 sequence (P02679 27-453): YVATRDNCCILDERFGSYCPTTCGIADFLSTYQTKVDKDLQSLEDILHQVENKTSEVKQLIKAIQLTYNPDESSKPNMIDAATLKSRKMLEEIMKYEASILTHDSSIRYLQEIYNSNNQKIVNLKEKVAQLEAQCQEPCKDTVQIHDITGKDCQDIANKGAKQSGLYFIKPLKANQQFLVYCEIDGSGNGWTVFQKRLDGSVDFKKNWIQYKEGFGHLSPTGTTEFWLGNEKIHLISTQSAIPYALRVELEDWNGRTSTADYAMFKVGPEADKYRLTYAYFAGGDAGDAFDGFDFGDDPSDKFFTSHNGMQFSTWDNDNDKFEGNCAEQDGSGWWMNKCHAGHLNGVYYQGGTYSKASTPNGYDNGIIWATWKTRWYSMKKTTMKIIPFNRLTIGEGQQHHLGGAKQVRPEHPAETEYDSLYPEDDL
The experiment in a line: Competition ELISA, peptide inhibition of recombinant Coa binding to Fg. The settings on record: increasing concentrations of peptide; 4 nM GST-tagged Coa proteins. The source says:
FIG. 9A illustrates a schematic presentation of recombinant Coa fragments generated in this study. Coa is depicted in its secreted form Coa (27-636) lacking the signal peptide (1-26). The N-terminus of Coa (Coa-N; Coa 27-310) constitutes D1D2 prothrombin binding domain. The C-terminus of Coa (Coa-C; Coa 311-636) includes the central region and the tandem-repeat region. The Coa-C further divides into two parts, the Coa-R is corresponding to the tandem-repeat region covering residue 506-636, and the Coa-F fragment covering residues 311-505. Recombinant protein Coa-R0 corresponds to the residues 474-506 residues. […] FIG. 9B illustrates an ELISA assays of GST-tagged Coa fragments binding to immobilized Fg. Open circle, Coa (Coa 27-636); open upright triangle, Coa-N(Coa 27-310); open inverted triangle, Coa-C(Coa 311-636); closed circle, Coa-R (Coa 506-636); closed diamond, Coa-F (Coa 311-505). […] FIG. 9D illustrates the effect of peptide Efb-O on inhibition of rCoa binding to Fg. Increasing concentration of Efb-O were incubated with 4 nM GST-tagged Coa proteins in Fg-coated microtiter wells. Control, BSA.
[…] All proteins were diluted in TBS containing 1% BSA and 0.05% TWEEN® 20 and the ELISA assays were carried out at room temperature.

As usually defined, the Kd is the equilibrium constant for the complex coming apart.

On to “sCoa-RI: synthetic peptide, first 27 residues of repeat region, Coa 506-532 (ETNAYNVTTHANGQVSYGARPTYKKPS)”, for which the Kd in test [1] came out at 88 nM.

Regarding “sEfb-O: synthetic peptide mimicking the high affinity Fg-binding motif in Efb (Efb 68-98) (KYIKFKHDYNILEFNDGTFEYGARPQFN)”, the “inhibition of recombinant Coa binding to Fg” value in test [2] is given as “effectively inhibited recombinant Coa binding to Fg”.
